Reference: patent US12496361B2, “Imaging compounds for detecting or imaging senescent cells” (University of Dundee, priority 2023, dated 2025)

Tests used:
[1] = test system: senescent cells in tissue sections of murine models (K-ras^V12-induced lung adenomas, palbociclib-treated human melanoma xenografts, bleomycin-induced lung …); experiment: Detection of senescent cells in tissue sections by fluorescent microscopy, murine models; conditions: bleomycin-treated lungs
Description: (§1) 1-Ethyl-2-((E)-2-((E)-3-((E)-2-(1-ethyl-3,3-dimethylindolin-2-ylidene)ethylidene)-2-((4-(4-((2-methyl-6-((E)-(4-((E)-phenyldiazenyl)naphthalen-1-yl)diazenyl)-2,3-dihydro-1H-perimidin-2-yl)methoxy)-4-oxobutanamido)butyl)amino)cyclohex-1-en-1-yl)vinyl)-3,3-dimethyl-3H-indol-1-ium iodide (15, Scheme 2, Example 2) was used to detect senescent cells in tissue sections by fluorescent microscopy.
(§2) Tissue sections were obtained from paraffin embedded, formalin fixed of: (A) irradiated human laryngeal tumors, (B) chemotherapy-treated breast tissues, (C) liver specimens from aged versus young individuals, (D) K-ras^V12 induced lung adenomas, (E) Palbociclib-treated human melanoma xenografts, and (F) Bleomycin-induced lung fibrosis mouse model, with established presence of senescent cells. Subsequently, they were immobilized on glass microscopy slides by standard procedures and processed as follows: • i. Section deparaffinization through a 30 minutes incubation at 60° C., followed by washing in xylene for 15 minutes at room temperature. • ii. Gradual rehydration of biopsy material, usually fixed tissues, in solutions of descending concentration of ethanol (100%, 96%, 80%, 70%, 50% v/v) for 5 minutes each step and finally in Phosphate-buffered saline (PBS) buffering solution; • iii. Antigen retrieval by heating in citrate acid solution 10 mM, pH=6. […]

[2] = test system: Li-Fraumeni-p21^WAF1/Cip1 Tet-ON cells; experiment: Detection of senescent cells in cell cultures by fluorescent microscopy; format: cell-based
Experimental: as §1, with “cell spreads using” for “tissue sections by”, “microscopy (FIG. 1).” for “microscopy.”
(§3) Li-Fraumeni-p21^WAF1/Cip1 or HBEC-CDC6 Tet-ON cellular systems were grown on cover slips and collected before and after the mentioned respective treatments for induction of senescence. Cover slips were treated as follows: • a) Cell spreads, immobilized preferably on a microscopy coverslip, are fixed in 4% paraformaldehyde (PFA) for 10 minutes at 4° C.; • b) Wash with PBS; • c) Cell membrane permeabilization: Immerse coverslips in solution of 0.3% Triton-X 100 diluted in PBS for 15 minutes; • d) Wash with PBS; • e) Apply compound of formula I on cells for 10 minutes in dark conditions; • f) Wash 3 times with fresh wash buffer [PBS/DMSO (2.5%)/TWEEN-20 (2.5%)]; • g) Incubate cells with 0.3% Triton-X 100 diluted in PBS for 3 minutes; • h) Wash with PBS; • i) Apply DAPI 1/5000 for 5 minutes in dark condition; • j) Rinse samples with dH2O for 30 seconds; • k) Cover section using a mounting medium for immunofluorescence.

HBEC CDC6 Tet-ON cells [3] = experiment: as above; format: cell-based
Experimental: as §1, with “cell spreads using” for “tissue sections by”, “microscopy (FIG. 1).” for “microscopy.”
as §3

[4] = test system: Li-Fraumeni-p21^WAF1/Cip1 Tet-ON cells; experiment: Detection by flow cytometry of senescent cells in cell culture; format: cell-based; conditions: with or without Doxycycline; anti-Ki67-Pacific blue and anti-p16^INK4A-APC; 3 independent experiments
Experimental: as §1, with “senescent cultured” for “senescent”, “cells” for “cells in tissue sections”, “flow cytometry.” for “fluorescent microscopy.”
(§4) Li-Fraumeni-p21^WAF1/Cip1 or HBEC-CDC6 Tet-ON cellular systems were grown in culture without or with Doxycyclin to induce senescence. Subsequently cells were treated and assessed as follows: • 1. Harvest cells from culture. • 2. Centrifuge at 1200 rpm for 5 min at RT. • 3. Wash ×1 in 5 ml PBS at RT. • 4. Resuspend cell pellet in 4% PFA and incubate them for 15 min in RT (fixation) • 5. Centrifuge at 1200 rpm for 5 min at RT. • 6. Resuspend cell pellet in 0.3% Triton-X/PBS and incubate it for 15 min at RT. • 7. Wash ×1 in 2 ml PBS at RT • 8. Centrifuge at 1200 rpm for 5 min at RT. • 9. Incubate samples with 100 μl of GLF16 for 8 min under gently shaking in dark condition • 10. Add 2 ml of wash buffer [PBS/DMSO (2.5%)/TWEEN-20 (2.5%)] and centrifuge at 1200 rpm for 5 min at RT (×2) • 11. Incubate with primary-conjugated antibody/ies for 20 min RT • 12. Centrifuge at 1200 rpm for 5 min at RT (×2) • 13. Apply flow cytometry buffer (PBS/5% FBS)

HBEC CDC6 Tet-ON cells [5] = experiment: as above; format: cell-based; conditions: with or without Doxycycline; anti-Ki67-Pacific blue only (HBEC cells do not express p16^INK4A)
Experimental: as §1, with “senescent cultured” for “senescent”, “cells” for “cells in tissue sections”, “flow cytometry.” for “fluorescent microscopy.”
as §4

[6] = test system: senescent cells in human tissue sections (irradiated laryngeal, chemotherapy-treated breast, aged liver); experiment: Detection of senescent cells in tissue sections by fluorescent microscopy, human clinical settings; conditions: chemotherapy-treated breast tissues, liver specimens from aged individuals versus respective controls, FFPE sections
Description: as §1, §2

CCN1/C(=C/C=C2\CCCC(/C=C/C3=[N+](CC)c4ccccc4C3(C)C)=C2NCCCCNC(=O)CCC(=O)OCC2(C)Nc3cccc4c(/N=N/c5ccc(/N=N/c6ccccc6)c6ccccc56)ccc(c34)N2)C(C)(C)c2ccccc21 (stereo not shown) [GLF16, 1-ethyl-2-((E)-2-((E)-3-((E)-2-(1-ethyl-3,3-dimethylindolin-2-ylidene)ethylidene)-2-((4-(4-((2-methyl-6-((E)-(4-((E)-phenyldiazenyl)naphthalen-1-yl)diazenyl)-2,3-dihydro-1H-perimidin-2-yl)methoxy)-4-oxobutanamido)butyl)amino)cyclohex-1-en-1-yl)vinyl)-3,3-dimethyl-3H-indol-1-ium iodide]
concurrent staining with Ki67, p21^WAF1/Cip1 and p16^INK4A ([1]; FIG. 3 G-I, tissue per panel not stated except H): coincided with p16^INKA4 or p21^WAF1/Cip1 but not with Ki67
GLF16 (lipofuscin) positive macrophages ([1]; FIG. 3H): positive macrophages in bleomycin-treated lungs are also evident
specificity: co-staining with p16^INK4A and Ki67 ([2]; (+) Doxycycline, FIG. 2 panels B, C): concordant staining presence of the senescence associated factors
co-staining with the proliferative marker Ki67 ([2]; FIG. 2C): inverse relationship between GLF16 and Ki67 positivity
GLF16 staining signal ([2]; cells treated or not with Doxycycline for 6-8 days, fixed, permeabilized, confocal microscope): intense cytoplasmic signal (corresponding to lipofuscin aggregates) abundant in senescent cells and entirely absent in untreated ones
specificity: co-staining with p21^WAF1/Cip and Ki67 (HBEC CDC6 Tet-ON cells [3]; (+) Doxycycline, FIG. 2 panels F, G): concordant staining presence of the senescence associated factors
staining of senescent cells (HBEC CDC6 Tet-ON cells [3]; FIG. 2 panel E, (-) Doxycycline as negative control): successful application
co-detection of GLF16 with senescence markers in gated GLF16 (+) and (-) cells [4]: co-detection of GLF16 and senescence markers (p16^INK4A and absence of Ki67) in the senescent population (induced cells)
co-detection of GLF16 with senescence markers in gated GLF16 (+) and (-) cells (HBEC CDC6 Tet-ON cells [5]): co-detection of GLF16 and senescence markers (p16^INK4A and absence of Ki67) in the senescent population (induced cells)
GLF16-positive cells in tissue [6]: abundant in GLF16-positive cells while in respective controls these positive cells were totally absent
